Our source for the EC50 values is PMC7581728, “Sapitinib Reverses Anticancer Drug Resistance in Colon Cancer Cells Overexpressing the ABCB1 Transporter” (Frontiers in Oncology, 2020).

pEC50: −log10 of the molar value.

For this assay, the target named is T1, ABCB1 (Homo sapiens, UniProt P08183).
T1 construct: ABCB1 transporter in membrane vesicles of High Five insect cells
Description: vanadate-sensitive ATPase stimulation in ABCB1 membrane vesicles ([…] maximum); also raised [3H]-paclitaxel accumulation in SW620/Ad300 cells. The class given is biochemical.

T1 sequence (P08183 whole entry): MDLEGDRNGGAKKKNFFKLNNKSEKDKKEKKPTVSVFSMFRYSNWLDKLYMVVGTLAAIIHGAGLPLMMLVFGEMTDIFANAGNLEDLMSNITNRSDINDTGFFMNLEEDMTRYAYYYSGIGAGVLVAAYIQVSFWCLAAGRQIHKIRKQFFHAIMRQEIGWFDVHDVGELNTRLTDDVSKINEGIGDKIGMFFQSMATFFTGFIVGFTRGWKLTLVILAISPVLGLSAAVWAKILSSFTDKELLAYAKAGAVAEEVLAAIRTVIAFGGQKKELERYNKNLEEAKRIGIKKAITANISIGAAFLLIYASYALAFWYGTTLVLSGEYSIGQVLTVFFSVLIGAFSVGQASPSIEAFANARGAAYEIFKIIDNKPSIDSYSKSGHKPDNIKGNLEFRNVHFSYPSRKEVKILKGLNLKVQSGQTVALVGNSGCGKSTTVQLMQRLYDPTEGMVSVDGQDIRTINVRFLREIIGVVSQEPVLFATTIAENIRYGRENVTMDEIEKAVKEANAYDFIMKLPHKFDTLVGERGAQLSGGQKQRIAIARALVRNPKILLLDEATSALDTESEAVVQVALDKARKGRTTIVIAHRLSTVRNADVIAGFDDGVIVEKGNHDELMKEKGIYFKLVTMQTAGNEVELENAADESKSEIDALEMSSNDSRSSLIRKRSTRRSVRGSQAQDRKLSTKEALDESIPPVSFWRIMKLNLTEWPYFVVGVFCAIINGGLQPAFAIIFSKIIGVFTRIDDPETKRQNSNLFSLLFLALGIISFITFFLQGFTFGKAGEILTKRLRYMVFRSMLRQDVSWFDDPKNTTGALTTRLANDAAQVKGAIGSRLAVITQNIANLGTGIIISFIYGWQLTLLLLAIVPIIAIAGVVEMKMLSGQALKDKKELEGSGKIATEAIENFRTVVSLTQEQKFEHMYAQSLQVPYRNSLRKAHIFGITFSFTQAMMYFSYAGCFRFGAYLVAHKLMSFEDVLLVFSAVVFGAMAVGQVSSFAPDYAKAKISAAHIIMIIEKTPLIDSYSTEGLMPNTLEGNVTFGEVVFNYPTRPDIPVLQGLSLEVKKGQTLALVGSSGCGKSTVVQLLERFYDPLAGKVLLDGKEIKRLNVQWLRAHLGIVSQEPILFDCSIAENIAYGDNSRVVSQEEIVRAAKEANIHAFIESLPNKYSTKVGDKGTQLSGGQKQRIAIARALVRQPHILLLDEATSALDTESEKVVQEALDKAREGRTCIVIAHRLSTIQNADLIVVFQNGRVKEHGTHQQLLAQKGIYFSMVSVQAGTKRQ

For `CNC(=O)CN1CCC(Oc2cc3c(Nc4cccc(Cl)c4F)ncnc3cc2OC)CC1` [sapitinib], the pEC50 (as a rule, −log10 of the EC50, conventionally taken in molar units) is 5.28.
